Type in all cases: functional
The subject of one assay is Aspergillus niger. The experiment in a line: Antimicrobial activity against Aspergillus niger after 48 hrs by two fold serial microdilution method. (Broth dilution looks for growth in wells or tubes with falling amounts of substance.)
For another assay, the system named is Saccharomyces cerevisiae. The experiment in a line: Antimicrobial activity against Saccharomyces cerevisiae after 48 hrs by two fold serial microdilution method.
Assay [1] relates to Fusarium oxysporum f. sp. cubense. The experiment in a line: Antimicrobial activity against Fusarium oxysporum f. sp. cubense after 48 hrs by two fold serial microdilution method.
The next assay deals with Escherichia coli. The experiment in a line: Antimicrobial activity against Escherichia coli ATCC 25922 after 24 hrs by two fold serial microdilution method. As to conditions: ATCC 25922, 24 h.
Another assay relates to Sporosarcina ureae. The experiment in a line: Antimicrobial activity against Sarcina ureae after 24 hrs by two fold serial microdilution method.
A further assay relates to Staphylococcus aureus. The experiment in a line: Antimicrobial activity against Staphylococcus aureus ATCC 27154 after 24 hrs by two fold serial microdilution method. To be noted: ATCC 27154, 24 h.
For a further assay, the system named is Pseudomonas aeruginosa. The experiment in a line: Antimicrobial activity against Pseudomonas aeruginosa after 24 hrs by two fold serial microdilution method.

Converted amounts (≈) assume the structure as drawn. Structures can show the parent of a compound that is named as a salt. Bounds are passed on as bounds.

The MIC is the least concentration at which growth counts as inhibited. Low values mean greater potency, high ones weaker potency. Take NYSTATIN: the MIC in the assay with Aspergillus niger was found to be 14.1 µM; with Saccharomyces cerevisiae, 14.1 µM; in assay [1], 28.2 µM.

Regarding `c1cnc2c(SCc3ccncc3)cccc2c1`, the MIC in the assay on Escherichia coli was 24.8 µM (≈ 6.26 µg/mL); against Sporosarcina ureae, greater than 198 µM; against Staphylococcus aureus, greater than 198 µM; in the assay with Pseudomonas aeruginosa, greater than 198 µM.

As for `c1cncc(CSc2cccc3cccnc23)c1`, the MIC is greater than 495 µM in the assay on Aspergillus niger; 99.1 µM (≈ 25 µg/mL) with Escherichia coli; greater than 198 µM against Sporosarcina ureae; greater than 495 µM against Saccharomyces cerevisiae; greater than 495 µM in assay [1]; greater than 198 µM with Staphylococcus aureus. The molecule further registered a minimal inhibitory concentration (MIC) in the assay with Pseudomonas aeruginosa greater than 198 µM.

In the case of `c1cc(CSc2cccc3cccnc23)nc(CSc2cccc3cccnc23)c1`, the MIC was 7.35 µM (≈ 3.13 µg/mL) in the assay on Escherichia coli, greater than 117 µM against Sporosarcina ureae, greater than 117 µM in the assay with Staphylococcus aureus and greater than 117 µM against Pseudomonas aeruginosa.

Turning to `CC1(C)S[C@@H]2[C@H](NC(=O)[C@H](N)c3ccccc3)C(=O)N2[C@H]1C(=O)O` [AMPICILLIN], the MIC with Escherichia coli came out at 34.7 µM (≈ 12.1 µg/mL); against Sporosarcina ureae, 17.4 µM (≈ 6.08 µg/mL); in the assay on Staphylococcus aureus, 69.4 µM (≈ 24.2 µg/mL); against Pseudomonas aeruginosa it was 17.4 µM (≈ 6.08 µg/mL).

With `c1ccc(CSc2cccc3cccnc23)nc1`, the MIC in the assay with Escherichia coli was 49.5 µM (≈ 12.5 µg/mL); against Sporosarcina ureae, greater than 198 µM; with Staphylococcus aureus it was greater than 198 µM; in the assay with Pseudomonas aeruginosa it was greater than 198 µM.

As for `CN[C@@H]1[C@H](O[C@H]2[C@H](O[C@H]3[C@H](O)[C@@H](O)[C@H](N=C(N)N)[C@@H](O)[C@@H]3N=C(N)N)O[C@@H](C)[C@]2(O)C=O)O[C@@H](CO)[C@H](O)[C@H]1O` [STREPTOMYCIN SULFATE], the minimal inhibitory concentration (MIC) is 2.14 µM against Escherichia coli, 2.14 µM against Sporosarcina ureae, 1.07 µM against Staphylococcus aureus and 1.07 µM with Pseudomonas aeruginosa.

The values are drawn from ChEMBL document CHEMBL3400089, “Studies on antimicrobial effects of four ligands and their transition metal complexes with 8-mercaptoquinoline and pyridine terminal groups” (2015).
